Assay results: patent US20090117083A1, “IMMUNOMODULATORY ALKALOIDS” (M N L PHARMA LIMITED, priority 2004, published 2009)
Read-outs that look alike come from different tables or passages of the source.

Assays:
[1] = tested on: spleen cells; assay: Cytokine modulation in spleen cells (IFN-γ); assay type: cell-based, BALB/c mice
Protocol: BALB/c male and female mice bred and maintained at the University of Strathclyde under conventional conditions were used at varying age.
Cells suspensions were prepared by using the end of a syringe and grinding the spleen through a wire mesh. The cell suspension was then centrifuged at 1000 rpm for 5 minutes. To remove the erythrocytes, the cell pellet was resuspended in Boyle's solution (Tris 0.17M & Ammonium Chloride 0.16M) and centrifuged again for 5 minutes. The pellet was then washed in medium a further two times, then resuspended in 3 mls medium. A cell count was then carried out.
All spleen cell experiments were carried out in 96-well tissue culture plates. […] Unstimulated wells contained 100 μl of cells and 100 μl of medium. The stimulated wells contained 100 μl of cells plus 50 μl of LPS at 1 μg/ml or 50 μl anti-CD3 at 0.5 μg/ml and 50 μl of medium. The remaining wells contained 100 μl cells, 5 μl of MNLP compound and either 50 μl of anti-CD3 or medium alone.
The appropriate Mabs and standards were used according to the protocol described for IL-12 (described in Example 1, above).

[2] = molecular target: T1, α-D-glucosidase (Oryza sativa subsp. japonica, UniProt Q653V7); assay: Glycosidase inhibition: α-D-glucosidase, rice; assay type: biochemical, rice (Oryza sativa)
T1 construct: purchased Sigma
Protocol: (§1) All enzymes were purchased from Sigma, as were the appropriate p-nitrophenyl substrates. Assays were carried out in microtitre plates. Enzymes were assayed in 0.1M citric acid/0.2M di-sodium hydrogen phosphate (McIlvaine) buffers at the optimum pH for the enzyme. All assays were carried out at 20° C. For screening assays the incubation assay consisted of 10 μl of enzyme solution, 10 μl of inhibitor solution (made up in water) and 50 μl of the appropriate 5 mM p-nitrophenyl substrate (3.57 mM final conc.) made up in McIlvaine buffer at the optimum pH for the enzyme.
(§2) The reactions were stopped with 0.4M glycine (pH 10.4) during the exponential phase of the reaction, which was determined at the beginning of the assay using blanks with water, which were incubated for a range of time periods to measure the reaction rate using 5 mM substrate solution. Endpoint absorbances were read at 405 nm with a Biorad microtitre plate reader (Benchmark). Water was substituted for the inhibitors in the blanks.

[3] = tested on: α-D-glucosidase; assay: Glycosidase inhibition: α-D-glucosidase, Bacillus; assay type: biochemical, Bacillus stearothermophilus; conditions: 1 mg/ml
Protocol: as §1, §2

[4] = tested on: β-D-glucosidase; assay: Glycosidase inhibition: β-D-glucosidase, almond; assay type: biochemical, Almonds (Prunus sp.); conditions: 1 mg/ml
Protocol: as §1, §2

[5] = molecular target: T2, α-D-galactosidase (Coffea arabica, UniProt Q42656); assay: Glycosidase inhibition: α-D-galactosidase; assay type: biochemical, Green coffee beans (Coffea sp.)
T2 construct: purchased Sigma
Protocol: as §1, §2

[6] = molecular target: T3, α-L-fucosidase (Bos taurus, UniProt Q2KIM0); assay: Glycosidase inhibition: α-L-fucosidase; assay type: biochemical, Bovine
T3 construct: purchased Sigma
T3 sequence (Q2KIM0 23-468): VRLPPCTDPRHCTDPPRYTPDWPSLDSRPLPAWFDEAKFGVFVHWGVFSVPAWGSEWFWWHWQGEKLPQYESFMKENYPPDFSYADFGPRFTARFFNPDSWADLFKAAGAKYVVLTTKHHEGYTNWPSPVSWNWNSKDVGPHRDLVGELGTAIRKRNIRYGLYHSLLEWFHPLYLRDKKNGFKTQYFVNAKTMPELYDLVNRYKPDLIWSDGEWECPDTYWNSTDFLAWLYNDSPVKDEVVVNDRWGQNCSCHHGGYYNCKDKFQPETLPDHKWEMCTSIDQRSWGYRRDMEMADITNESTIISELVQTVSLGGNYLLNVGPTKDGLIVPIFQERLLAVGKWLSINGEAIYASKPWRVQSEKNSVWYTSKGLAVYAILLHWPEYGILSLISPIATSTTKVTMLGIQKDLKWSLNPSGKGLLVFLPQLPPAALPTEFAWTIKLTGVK
Protocol: as §1, §2

[7] = tested on: Naringinase; assay: Glycosidase inhibition: Naringinase; assay type: biochemical, Penecillium decumbens; conditions: 1 mg/ml
Protocol: as §1, §2

[8] = tested on: N-acetyl-β-D-glucosaminidase; assay: Glycosidase inhibition: N-acetyl-β-D-glucosaminidase; assay type: biochemical, Bovine; conditions: 1 mg/ml
Protocol: as §1, §2

[9] = tested on: B16-F10 tumour cells; assay: Control of lung metastasis in mice (B16-F10); assay type: in vivo, C57/bl6 mice; conditions: 50 mg/kg s/c on days 2 and 4; lungs on day 14
Protocol: Mice (C57/bl6 under i/p ketamine anaesthesia) were challenged i/v (tail vein) with 5×10^4 B16-F10 tumour cells in a final volume of 100 μl per mouse on day 0. Test compounds (50 mg/kg in 200 μl sterile non-pyrogenic saline) were administered sic (right flank) on days 2 and 4. On day 14 the mice were sacrifices and the lungs dissected and stained in Indian ink solution (150 ml bidistilled water, 30 ml India Ink, 4 drops NH4OH) for 10 minutes then fixed for at least 24 hr in Fakete's solution (90 ml 37% formaldehyde, 900 ml 70% EtOH and 45 ml glacial acetic acid). The metastases in the stained and fixed lungs could then be visualized, counted and photographed.

[10] = molecular target: T4, α-D-glucosidase (Saccharomyces cerevisiae, UniProt P53341); assay: Glycosidase inhibition (p-nitrophenyl substrate): α-D-glucosidase, yeast; assay type: biochemical, Saccharomyces cerevisiae (Baker's yeast); conditions: 1 mg/ml
T4 construct: purchased Sigma
Protocol: as §1, §2

[11] = molecular target: T5, α-D-mannosidase (Canavalia ensiformis, UniProt C0HJB3); assay: Glycosidase inhibition: α-D-mannosidase; assay type: biochemical, Jack beans (Canavalia ensiformis)
T5 construct: purchased Sigma
Protocol: All enzymes were purchased from Sigma, as were the appropriate p-nitrophenyl substrates. Assays were carried out in microtitre plates. Enzymes were assayed in 0.1M citric acid/0.2M di-sodium hydrogen phosphate (McIlvaine) buffers at the optimum pH for the enzyme. All assays were carried out at 20° C.
Endpoint absorbances were read at 405 nm with a Biorad microtitre plate reader (Benchmark). Water was substituted for the inhibitors in the blanks.

[12] = tested on: β-D-galactosidase; assay: Glycosidase inhibition: β-D-galactosidase; assay type: biochemical, Bovine; conditions: 1 mg/ml
Protocol: as §1, §2

[13] = tested on: HSV-1 (SC16); conditions: versus infected untreated group
[14] = 1 mg/ml, read-out: % inhibition, gluc (rice)
[15] = read-out: % inhibition, galactosidase
[16] = 1 mg/ml, read-out: % inhibition, fucosidase
[17] = read-out: % inhibition, gluc (yeast)
[18] = read-out: % inhibition, mannosidase
[19] = read-out: % inhibition, α-gluc (yeast)
[20] = read-out: % inhibition, α-gluc (rice)
[21] = 1 mg/ml, read-out: % inhibition, α-galactosidase
[22] = read-out: % inhibition, α-mannosidase
[23] = read-out: % inhibition, α-fucosidase
[24] = 1 mg/ml, read-out: % inhibition, α-gluc (rice)
[25] = 1 mg/ml, read-out: % inhibition, α-fucosidase

T4 sequence (P53341 whole entry): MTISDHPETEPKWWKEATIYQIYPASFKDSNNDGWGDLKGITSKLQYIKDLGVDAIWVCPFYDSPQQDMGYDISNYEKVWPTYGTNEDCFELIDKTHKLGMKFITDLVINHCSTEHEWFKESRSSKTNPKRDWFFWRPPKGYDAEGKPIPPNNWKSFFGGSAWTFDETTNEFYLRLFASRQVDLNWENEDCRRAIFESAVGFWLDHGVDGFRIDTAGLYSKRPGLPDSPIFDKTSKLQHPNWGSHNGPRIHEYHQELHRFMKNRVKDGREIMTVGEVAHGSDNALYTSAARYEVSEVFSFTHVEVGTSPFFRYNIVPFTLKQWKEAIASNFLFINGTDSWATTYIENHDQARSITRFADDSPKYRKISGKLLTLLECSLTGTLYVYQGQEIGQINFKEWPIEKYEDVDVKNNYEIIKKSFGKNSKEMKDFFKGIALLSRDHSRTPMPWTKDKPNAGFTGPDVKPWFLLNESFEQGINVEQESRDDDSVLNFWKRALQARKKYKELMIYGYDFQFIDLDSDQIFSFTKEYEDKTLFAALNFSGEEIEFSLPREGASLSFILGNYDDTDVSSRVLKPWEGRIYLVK
T5 sequence (C0HJB3 whole entry): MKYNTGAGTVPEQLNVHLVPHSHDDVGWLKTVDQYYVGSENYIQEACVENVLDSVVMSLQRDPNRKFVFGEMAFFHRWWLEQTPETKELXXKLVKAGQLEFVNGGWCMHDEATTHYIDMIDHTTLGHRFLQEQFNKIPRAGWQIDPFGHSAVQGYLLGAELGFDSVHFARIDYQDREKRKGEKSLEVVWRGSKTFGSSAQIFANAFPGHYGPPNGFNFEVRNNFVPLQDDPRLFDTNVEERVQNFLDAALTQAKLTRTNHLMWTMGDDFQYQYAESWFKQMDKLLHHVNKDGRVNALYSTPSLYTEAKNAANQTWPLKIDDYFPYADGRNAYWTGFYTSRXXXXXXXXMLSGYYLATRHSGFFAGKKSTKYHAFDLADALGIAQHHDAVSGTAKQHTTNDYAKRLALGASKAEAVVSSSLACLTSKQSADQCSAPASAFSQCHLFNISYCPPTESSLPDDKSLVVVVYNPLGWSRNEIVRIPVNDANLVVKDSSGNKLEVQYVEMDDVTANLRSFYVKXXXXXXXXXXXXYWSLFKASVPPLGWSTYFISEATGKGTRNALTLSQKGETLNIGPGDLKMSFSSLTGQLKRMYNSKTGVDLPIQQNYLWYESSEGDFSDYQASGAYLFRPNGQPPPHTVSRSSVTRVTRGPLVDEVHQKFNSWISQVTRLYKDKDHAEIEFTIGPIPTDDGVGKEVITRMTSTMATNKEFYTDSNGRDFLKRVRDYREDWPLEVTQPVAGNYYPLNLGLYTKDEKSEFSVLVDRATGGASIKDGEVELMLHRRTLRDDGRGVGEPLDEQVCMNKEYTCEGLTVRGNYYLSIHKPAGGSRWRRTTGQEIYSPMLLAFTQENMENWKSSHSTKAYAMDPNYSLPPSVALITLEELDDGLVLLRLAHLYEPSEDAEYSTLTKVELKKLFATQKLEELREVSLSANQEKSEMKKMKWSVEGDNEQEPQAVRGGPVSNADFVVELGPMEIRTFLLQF
T1 sequence (Q653V7 34-885): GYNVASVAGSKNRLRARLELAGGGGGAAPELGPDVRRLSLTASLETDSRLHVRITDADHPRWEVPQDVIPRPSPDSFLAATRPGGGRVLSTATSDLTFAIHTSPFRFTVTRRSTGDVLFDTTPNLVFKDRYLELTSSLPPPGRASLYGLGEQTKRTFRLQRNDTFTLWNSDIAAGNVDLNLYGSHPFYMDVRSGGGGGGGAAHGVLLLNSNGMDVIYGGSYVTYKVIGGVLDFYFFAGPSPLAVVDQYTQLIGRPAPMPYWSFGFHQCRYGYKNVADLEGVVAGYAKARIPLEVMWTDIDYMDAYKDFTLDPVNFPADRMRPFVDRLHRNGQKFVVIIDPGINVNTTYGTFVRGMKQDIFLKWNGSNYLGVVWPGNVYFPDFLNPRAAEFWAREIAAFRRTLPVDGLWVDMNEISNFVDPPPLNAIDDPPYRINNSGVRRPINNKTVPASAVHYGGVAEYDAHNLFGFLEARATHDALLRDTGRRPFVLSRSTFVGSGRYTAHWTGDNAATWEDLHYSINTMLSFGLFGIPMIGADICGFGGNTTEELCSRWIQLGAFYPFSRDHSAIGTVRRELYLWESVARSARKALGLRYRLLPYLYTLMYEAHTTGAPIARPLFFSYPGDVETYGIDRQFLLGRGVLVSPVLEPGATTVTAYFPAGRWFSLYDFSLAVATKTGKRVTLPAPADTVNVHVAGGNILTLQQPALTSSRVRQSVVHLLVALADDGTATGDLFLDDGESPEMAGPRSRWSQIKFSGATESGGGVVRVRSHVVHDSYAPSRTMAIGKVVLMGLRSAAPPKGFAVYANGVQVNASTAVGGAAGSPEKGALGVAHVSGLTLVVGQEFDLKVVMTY
T2 sequence (Q42656 16-378): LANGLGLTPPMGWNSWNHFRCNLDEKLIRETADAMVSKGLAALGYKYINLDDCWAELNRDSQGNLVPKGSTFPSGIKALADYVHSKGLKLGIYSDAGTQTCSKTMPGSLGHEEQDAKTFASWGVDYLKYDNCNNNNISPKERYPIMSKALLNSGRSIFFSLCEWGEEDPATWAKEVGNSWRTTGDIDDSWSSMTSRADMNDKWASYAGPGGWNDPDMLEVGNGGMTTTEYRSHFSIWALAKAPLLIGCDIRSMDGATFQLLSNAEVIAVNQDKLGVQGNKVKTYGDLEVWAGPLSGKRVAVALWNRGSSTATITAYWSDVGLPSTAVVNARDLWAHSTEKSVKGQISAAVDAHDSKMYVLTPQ

| Compound | inhibition at 1000 µg/mL [2, 14] [%] | % inhibition, gluc (Bacillus) [3] [%] | % inhibition, glucosidase [4] [%] | % inhibition, Naringinase [7] [%] | % inhibition, N-acetyl-β-gluc [8] [%] | inhibition at 1000 µg/mL [10, 19] [%] | % inhibition, α-gluc (Bacillus) [3] [%] | % inhibition, β-glucosidase [4] [%] | inhibition at 1000 µg/mL [5, 21] [%] | % inhibition, β-galactosidase [12] [%] | inhibition at 1000 µg/mL [11, 22] [%] | also measured |
| --- | --- | --- | --- | --- | --- | --- | --- | --- | --- | --- | --- | --- |
| OC[C@H]1NC[C@H](O)[C@@H](O)[C@@H]1O [1-Deoxynojirimycin (DNJ) (21), 1-Deoxynojirimycin] |  |  |  |  |  |  |  |  |  |  |  | IFN-γ secretion/production in splenocytes [1]: inhibited |
| OC[C@H]1[C@@H](O)[C@H](O)[C@H]2[C@H](O)[C@@H](O)CN21 [3-epi-casuarine (14), 3-epi-casuarine] | 13 | 12 | 56 | 21 | −1 |  |  |  |  |  |  | inhibition at 1000 µg/mL [5, 15]: 4%; inhibition at 1000 µg/mL [6, 16]: -2%; Metastatic morphology [9]: Metastasis restricted to apical tip of lung |
| OC[C@@H]1[C@@H](O)[C@H](O)[C@H]2[C@@H](O)[C@@H](O)CN21 [7-epi-casuarine (11), 7-epi-casuarine] | 73 | 5 | 30 | −4 |  |  |  |  |  |  |  | inhibition at 1000 µg/mL [5, 15]: 1%; inhibition at 1000 µg/mL [6, 16]: 25% |
| OC[C@H]1[C@@H](O)[C@H](O)[C@H]2[C@@H](O)[C@H](O)CN21 [Compound 12, 3,6,7-triepi-casuarine] | 0 | 9 | 6 | 0 | 19 |  |  |  |  |  |  | inhibition at 1000 µg/mL [10, 17]: 2%; inhibition at 1000 µg/mL [5, 15]: 2%; inhibition at 1000 µg/mL [11, 18]: 8%; inhibition at 1000 µg/mL [6, 16]: -11% |
| OC[C@H]1[C@@H](O)[C@H](O)[C@@H]2[C@@H](O)[C@H](O)CN21 [Compound 21, 3,6,7,7a-tetraepi-casuarine] | 46 | −2 | 44 | 5 | 27 |  |  |  |  |  |  | inhibition at 1000 µg/mL [5, 15]: -3%; inhibition at 1000 µg/mL [11, 18]: 1% |
| OC[C@H]1[C@@H](O)[C@H](O)[C@@H]2[C@@H](O)[C@@H](O)CN21 [Compound 22, 3,7,7a-triepi-casuarine] | 0 | 87 | 52 | 10 |  |  |  |  |  |  |  | inhibition at 1000 µg/mL [10, 17]: 29% |
| O[C@@H]1[C@@H]2[C@@H](O)[C@H](O)[C@H](O)CN2C[C@H]1O [Compound 35, 2-α-hydroxy-6-epi-castanospermine] |  |  |  | 0 | 20 | -5 | −12 | −3 | -5 | −1 | 11 | inhibition at 1000 µg/mL [2, 20]: 61%; inhibition at 1000 µg/mL [6, 23]: 0% |
| OC[C@H]1N[C@H](c2ccc(O)cc2)[C@@H](O)[C@@H]1O [Compound 36, PLB1] |  |  |  | 41 | 30 | 19 | 62 | 52 | 43 | 52 | 42 | inhibition at 1000 µg/mL [2, 24]: 54%; inhibition at 1000 µg/mL [6, 25]: 13% |
| O[C@@H]1[C@@H]2[C@@H](O)[C@H](O)[C@@H](O)CN2C[C@@H]1O [Compound 44, 2-β-hydroxycastanospermine] |  |  |  | 6 | 13 | 8 |  | 20 | -4 | −1 | 1 |  |
| OCCN1C[C@@H](O)[C@H](O)[C@H]1CO [Compound 55, N-hydroxyethyl-1,4-dideoxy-1,4-imino-D-arabinitol] |  |  |  | 44 | 6 | -3 | 15 | 44 | 4 | 13 | 5 | inhibition at 1000 µg/mL [2, 24]: 71%; inhibition at 1000 µg/mL [6, 25]: -7% |
| O[C@@H]1[C@@H]2[C@@H](O)[C@H](O)[C@@H](O)CN2C[C@H]1O [Compound 64, 2-α-hydroxycastanospermine] |  |  |  | 76 | 21 | -6 | −15 | −1 | -9 | −3 | 21 | inhibition at 1000 µg/mL [2, 20]: 12%; inhibition at 1000 µg/mL [6, 23]: 4% |
| COc1cc([C@H]2N[C@H](CO)[C@@H](O)[C@@H]2O)ccc1O [Compound 65, PLB2] |  |  |  | 4 | 0 | 37 | 37 | 25 | 4 | 18 | -16 | inhibition at 1000 µg/mL [2, 24]: 0%; inhibition at 1000 µg/mL [6, 25]: -4% |
| OCC1N[C@H](CO)[C@@H](O)[C@@H]1O (some centres unmarked) [DMDP, 2,6-dihydroxymethyl-3,4-dihydroxypyrrolidine] |  |  |  | 0 | 25 | 74 | 85 | 81 | -3 | 71 | 25 | inhibition at 1000 µg/mL [2, 24]: 91%; inhibition at 1000 µg/mL [6, 25]: -4% |
| CC(=O)OCC(CCn1cnc2cnc(N)nc21)COC(C)=O [famciclovir, reference compound] |  |  |  |  |  |  |  |  |  |  |  | ear thickness response [13]: almost completely negated |
